In patent US10597388B2, “Pyridazinone herbicides” (FMC CORPORATION, priority 2014, dated 2020):

Columns and labels:
Test in all cases: Test E greenhouse herbicide test, pre- and postemergence
Format in all cases: in vivo
[1] = test system: momingglory (Ipomoea coccinea); conditions: Preemergence
Method in brief: (§1)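 Compounds in a non-phytotoxic solvent mixture with surfactant were applied preemergence to seeds in silt loam soil and postemergence to 2-18 cm plants (1- to 4-leaf stage) in peat-based medium. After 14 to 21 d in a greenhouse, injury was rated visually against untreated controls on a 0 (no effect) to 100 (complete control) scale.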

[2] = test system: pigweed, palmer (palmer pigweed, Amaranthus palmeri)
Method in brief: as §1

[3] = test system: crabgrass, large (large crabgrass, Digitaria sanguinalis); conditions: Preemergence
Method in brief: as §1

[4] = test system: barnyardgrass (Echinochloa crus-galli)
Method in brief: as §1

[5] = test system: Italian ryegrass (Lolium multiflorum)
Method in brief: as §1

[6] = test system: crabgrass, Brazilian (Brazilian crabgrass, Digitaria horizontalis)
Method in brief: as §1

corn (Zea mays) = test system: corn (Zea mays)
Method in brief: as §1

kochia (Kochia scoparia) = test system: kochia (Kochia scoparia)
Method in brief: as §1

[7] = test system: beggarticks (hairy beggarticks, Bidens pilosa)
Method in brief: as §1

[8] = test system: panicum, fall (fall panicum, Panicum dichotomiflorum)
Method in brief: as §1

[9] = test system: ragweed (common ragweed, Ambrosia elatior)
Method in brief: as §1

[10] = test system: velvetleaf (Abutilon theophrasti); conditions: Preemergence
Method in brief: as §1

[11] = test system: horseweed (Conyza canadensis)
Method in brief: as §1

[12] = test system: foxtail, green (green foxtail, Setaria viridis); conditions: Preemergence
Method in brief: as §1

[13] = test system: nutsedge, yellow (yellow nutsedge, Cyperus esculentus); conditions: Preemergence
Method in brief: as §1

[14] = test system: field bindweed (Convolvulus arvensis)
Method in brief: as §1

[15] = test system: foxtail, giant (giant foxtail, Setaria faberii); conditions: Preemergence
Method in brief: as §1

[16] = 62 g ai/ha, scale 0 to 100 (0 no effect, 100 complete control)
[17] = 125 g ai/ha, scale 0 to 100 (0 no effect, 100 complete control)
[18] = 31 g ai/ha, scale 0 to 100, 0 no effect, 100 complete control
[19] = 250 g ai/ha, visual, scale 0 no effect to 100 complete control
[20] = 62 g ai/ha, Preemergence, scale 0 to 100 (0 no effect, 100 complete control)
[21] = 125 g ai/ha, Postemergence, scale 0 to 100 (0 no effect, 100 complete control)
[22] = 125 g ai/ha, Preemergence, scale 0 to 100 (0 no effect, 100 complete control)
[23] = 250 g ai/ha, Postemergence, scale 0 to 100 (0 no effect, 100 complete control)
[24] = Preemergence, 31 g ai/ha, scale 0 to 100, 0 no effect, 100 complete control
[25] = Preemergence, 250 g ai/ha, visual, scale 0 no effect to 100 complete control
[26] = 125 g ai/ha, visual, scale 0 no effect to 100 complete control
[27] = Preemergence, 125 g ai/ha, visual, scale 0 no effect to 100 complete control

In the case of `CCC(=O)Oc1c(C)nn(C)c(=O)c1-c1c(C)sc2c(C)cc(C)cc12` [Compound 28], the “Plant response rating, Morningglory” value [1, 16] is reported as 90, the “Plant response rating, Morningglory” value [1, 17] is reported as 95 and the “Plant response rating, Morningglory” value [1, 18] is reported as 50. The “Plant response rating, Morningglory” value [1, 19] was 100, the “Plant response rating, Pigweed, Palmer” value [2, 20] was 65 and the “Plant response rating, Pigweed, Palmer” value [2, 21] was 50. For the same molecule, the “Plant response rating, Pigweed, Palmer” value [2, 22] was 95, the “Plant response rating, Pigweed, Palmer” value [2, 23] was 50 and the “Plant response rating, Pigweed, Palmer” value [2, 24] was 0. For the same molecule, the “Plant response rating, Pigweed, Palmer” value [2, 25] was 98, the “Plant response rating, Crabgrass, Large” value [3, 16] was 35 and the “Plant response rating, Crabgrass, Large” value [3, 26] was 90. The “Plant response rating, Crabgrass, Large” value [3, 19] was 90, the “Plant response rating, Barnyardgrass” value [4, 20] was 20 and the “Plant response rating, Barnyardgrass” value [4, 21] was 50. For the same molecule, the “Plant response rating, Barnyardgrass” value [4, 23] was 60, the “Plant response rating, Barnyardgrass” value [4, 24] was 20 and the “Plant response rating, Barnyardgrass” value [4, 27] was 65. The “Plant response rating, Barnyardgrass” value [4, 25] was 90, the “Plant response rating, Ryegrass, Italian” value [5, 20] was 80 and the “Plant response rating, Ryegrass, Italian” value [5, 21] was 75. For the same molecule, the “Plant response rating, Ryegrass, Italian” value [5, 22] was 95, the “Plant response rating, Ryegrass, Italian” value [5, 23] was 75 and the “Plant response rating, Ryegrass, Italian” value [5, 24] was 70. The “Plant response rating, Ryegrass, Italian” value [5, 25] was 100, the “Plant response rating, Crabgrass, Brazil” value [6, 20] was 70 and the “Plant response rating, Crabgrass, Brazil” value [6, 21] was 50. The “Plant response rating, Crabgrass, Brazil” value [6, 23] was 60, the “Plant response rating, Crabgrass, Brazil” value [6, 24] was 70 and the “Plant response rating, Crabgrass, Brazil” value [6, 27] was 80. For the same molecule, the “Plant response rating, Crabgrass, Brazil” value [6, 25] was 90, the “Plant response rating, Corn” value (corn (Zea mays); [20]) was 0 and the “Plant response rating, Corn” value (corn (Zea mays); [21]) was 5. The “Plant response rating, Corn” value (corn (Zea mays); [23]) was 5, the “Plant response rating, Corn” value (corn (Zea mays); [24]) was 0 and the “Plant response rating, Corn” value (corn (Zea mays); [27]) was 0. The “Plant response rating, Corn” value (corn (Zea mays); [25]) was 0, the “Plant response rating, Kochia” value (kochia (Kochia scoparia); [20]) was 0 and the “Plant response rating, Kochia” value (kochia (Kochia scoparia); [21]) was 75. For the same molecule, the “Plant response rating, Kochia” value (kochia (Kochia scoparia); [23]) was 90, the “Plant response rating, Kochia” value (kochia (Kochia scoparia); [24]) was 0 and the “Plant response rating, Kochia” value (kochia (Kochia scoparia); [27]) was 60. For the same molecule, the “Plant response rating, Kochia” value (kochia (Kochia scoparia); [25]) was 100, the “Plant response rating, Beggarticks” value [7, 20] was 100 and the “Plant response rating, Beggarticks” value [7, 21] was 100. For the same molecule, the “Plant response rating, Beggarticks” value [7, 23] was 100, the “Plant response rating, Beggarticks” value [7, 24] was 100 and the “Plant response rating, Beggarticks” value [7, 27] was 100. For the same molecule, the “Plant response rating, Beggarticks” value [7, 25] was 100, the “Plant response rating, Panicum, Fall” value [8, 20] was 95 and the “Plant response rating, Panicum, Fall” value [8, 21] was 70. The “Plant response rating, Panicum, Fall” value [8, 22] was 98, the “Plant response rating, Panicum, Fall” value [8, 23] was 90 and the “Plant response rating, Panicum, Fall” value [8, 24] was 90. The “Plant response rating, Panicum, Fall” value [8, 25] was 100, the “Plant response rating, Ragweed” value [9, 20] was 90 and the “Plant response rating, Ragweed” value [9, 21] was 70. For the same molecule, the “Plant response rating, Ragweed” value [9, 22] was 95, the “Plant response rating, Ragweed” value [9, 23] was 75 and the “Plant response rating, Ragweed” value [9, 24] was 95. For the same molecule, the “Plant response rating, Ragweed” value [9, 25] was 98, the “Plant response rating, Velvetleaf” value [10, 16] was 35 and the “Plant response rating, Velvetleaf” value [10, 17] was 70. For the same molecule, the “Plant response rating, Velvetleaf” value [10, 18] was 0, the “Plant response rating, Velvetleaf” value [10, 19] was 100 and the “Plant response rating, Horseweed” value [11, 20] was 100. The “Plant response rating, Horseweed” value [11, 21] was 80, the “Plant response rating, Horseweed” value [11, 23] was 80 and the “Plant response rating, Horseweed” value [11, 24] was 100. The “Plant response rating, Horseweed” value [11, 27] was 100, the “Plant response rating, Horseweed” value [11, 25] was 98 and the “Plant response rating, Foxtail, Green” value [12, 16] was 98. For the same molecule, the “Plant response rating, Foxtail, Green” value [12, 18] was 65, the “Plant response rating, Foxtail, Green” value [12, 26] was 100 and the “Plant response rating, Foxtail, Green” value [12, 19] was 100. The “Plant response rating, Nutsedge, Yellow” value [13, 16] was 20, the “Plant response rating, Nutsedge, Yellow” value [13, 17] was 70 and the “Plant response rating, Nutsedge, Yellow” value [13, 18] was 20. The “Plant response rating, Nutsedge, Yellow” value [13, 19] was 95, the “Plant response rating, Field Bindweed” value [14, 20] was 0 and the “Plant response rating, Field Bindweed” value [14, 21] was 60. The “Plant response rating, Field Bindweed” value [14, 23] was 80, the “Plant response rating, Field Bindweed” value [14, 24] was 0 and the “Plant response rating, Field Bindweed” value [14, 27] was 90. For the same molecule, the “Plant response rating, Field Bindweed” value [14, 25] was 75, the “Plant response rating, Foxtail, Giant” value [15, 16] was 100 and the “Plant response rating, Foxtail, Giant” value [15, 18] was 85. The “Plant response rating, Foxtail, Giant” value [15, 26] was 100 and the “Plant response rating, Foxtail, Giant” value [15, 19] was 100.

For `CCOC(=O)Oc1c(C)nn(C)c(=O)c1-c1c(CC)ccc2ccccc12` [Compound 37], the “Plant response rating, Morningglory” value [1, 16] was 40, the “Plant response rating, Morningglory” value [1, 17] was 50 and the “Plant response rating, Morningglory” value [1, 18] was 15. The “Plant response rating, Morningglory” value [1, 19] was 65, the “Plant response rating, Pigweed, Palmer” value [2, 20] was 90 and the “Plant response rating, Pigweed, Palmer” value [2, 22] was 100. For the same molecule, the “Plant response rating, Pigweed, Palmer” value [2, 24] was 0, the “Plant response rating, Pigweed, Palmer” value [2, 25] was 100 and the “Plant response rating, Crabgrass, Large” value [3, 16] was 75. For the same molecule, the “Plant response rating, Crabgrass, Large” value [3, 18] was 50, the “Plant response rating, Crabgrass, Large” value [3, 26] was 80 and the “Plant response rating, Crabgrass, Large” value [3, 19] was 90. The “Plant response rating, Barnyardgrass” value [4, 20] was 0, the “Plant response rating, Barnyardgrass” value [4, 24] was 0 and the “Plant response rating, Barnyardgrass” value [4, 27] was 0. For the same molecule, the “Plant response rating, Barnyardgrass” value [4, 25] was 30, the “Plant response rating, Ryegrass, Italian” value [5, 20] was 95 and the “Plant response rating, Ryegrass, Italian” value [5, 22] was 100. For the same molecule, the “Plant response rating, Ryegrass, Italian” value [5, 24] was 85, the “Plant response rating, Ryegrass, Italian” value [5, 25] was 100 and the “Plant response rating, Crabgrass, Brazil” value [6, 20] was 85. For the same molecule, the “Plant response rating, Crabgrass, Brazil” value [6, 24] was 70, the “Plant response rating, Crabgrass, Brazil” value [6, 27] was 90 and the “Plant response rating, Crabgrass, Brazil” value [6, 25] was 95. The “Plant response rating, Corn” value (corn (Zea mays); [20]) was 0, the “Plant response rating, Corn” value (corn (Zea mays); [24]) was 0 and the “Plant response rating, Corn” value (corn (Zea mays); [27]) was 0. The “Plant response rating, Corn” value (corn (Zea mays); [25]) was 0, the “Plant response rating, Kochia” value (kochia (Kochia scoparia); [20]) was 0 and the “Plant response rating, Kochia” value (kochia (Kochia scoparia); [24]) was 0. For the same molecule, the “Plant response rating, Kochia” value (kochia (Kochia scoparia); [27]) was 0, the “Plant response rating, Kochia” value (kochia (Kochia scoparia); [25]) was 65 and the “Plant response rating, Beggarticks” value [7, 20] was 98. The “Plant response rating, Beggarticks” value [7, 24] was 80, the “Plant response rating, Beggarticks” value [7, 27] was 98 and the “Plant response rating, Beggarticks” value [7, 25] was 100. The “Plant response rating, Panicum, Fall” value [8, 20] was 100, the “Plant response rating, Panicum, Fall” value [8, 22] was 100 and the “Plant response rating, Panicum, Fall” value [8, 24] was 90. For the same molecule, the “Plant response rating, Panicum, Fall” value [8, 25] was 100, the “Plant response rating, Ragweed” value [9, 20] was 90 and the “Plant response rating, Ragweed” value [9, 22] was 95. For the same molecule, the “Plant response rating, Ragweed” value [9, 24] was 50, the “Plant response rating, Ragweed” value [9, 25] was 98 and the “Plant response rating, Velvetleaf” value [10, 16] was 50. The “Plant response rating, Velvetleaf” value [10, 17] was 70, the “Plant response rating, Velvetleaf” value [10, 18] was 30 and the “Plant response rating, Velvetleaf” value [10, 19] was 100. For the same molecule, the “Plant response rating, Horseweed” value [11, 20] was 100, the “Plant response rating, Horseweed” value [11, 24] was 100 and the “Plant response rating, Horseweed” value [11, 27] was 100. The “Plant response rating, Horseweed” value [11, 25] was 100, the “Plant response rating, Foxtail, Green” value [12, 16] was 60 and the “Plant response rating, Foxtail, Green” value [12, 18] was 0. For the same molecule, the “Plant response rating, Foxtail, Green” value [12, 26] was 65, the “Plant response rating, Foxtail, Green” value [12, 19] was 80 and the “Plant response rating, Nutsedge, Yellow” value [13, 16] was 0. For the same molecule, the “Plant response rating, Nutsedge, Yellow” value [13, 17] was 65, the “Plant response rating, Nutsedge, Yellow” value [13, 18] was 0 and the “Plant response rating, Nutsedge, Yellow” value [13, 19] was 70. The “Plant response rating, Field Bindweed” value [14, 20] was 90, the “Plant response rating, Field Bindweed” value [14, 24] was 75 and the “Plant response rating, Field Bindweed” value [14, 27] was 85. The “Plant response rating, Field Bindweed” value [14, 25] was 100, the “Plant response rating, Foxtail, Giant” value [15, 16] was 70 and the “Plant response rating, Foxtail, Giant” value [15, 18] was 65. The “Plant response rating, Foxtail, Giant” value [15, 26] was 80 and the “Plant response rating, Foxtail, Giant” value [15, 19] was 90.
